The subject of experiment [1] is electrocutaneous stimulation-induced facial pain rodent model. Description: ES-induced facial pain model, acute treatment, overall conclusion (mechanical and thermal tests). Type of experiment: in vivo, Sprague-Dawley rats. As to conditions: 1, 3 and 10 mg/kg po. The source says: The electrocutaneous stimulation-induced facial pain rodent model is a reproducible orofacial pain model in which depilated cheek area of rats are repeatedly subjected to electrical stimulation. Repeated electrical stimulation at low intensities produces craniofacial pain that mimics the behavioral characteristics of TN such as development of mechanical and thermal allodynia at cheeks despite no visible edema, swelling or excessive injury and tissue damage. Male wild type, Sprague-Dawley rats (Charles River Laboratories) born in-house at […] Research Laboratory between May 24, 2020 to May 28, 2020. […] Compound 1, vehicle and Carbamazepine was administered perorally in doses of 1, 3, and 10 mg/kg (Compound 1) or 30 mg/kg (carbamazepine) and drug effects on pain thresholds were evaluated 2- and 4 hours after drug administration by assessment of mechanical- (von Frey) and thermal hypersensitivity (heat- and cold stimulation respectively). Decrease in ES-induced pain threshold was evaluated 22 hours following electrical stimulation of the depilated left cheek area (between the eye and ear ridge, this is a receptive field of trigeminal nerve) of each rat and was manifested as facial withdrawal following application of Von Frey filaments for mechanical allodynia and a heat lamp and acetone test for thermal hyperalgesia and allodynia respectively. […]

Experiment [2] has as its target GABAA receptors containing the a5 subunit (Homo sapiens, UniProt P18507+P31644). The following applies: cited from earlier work.
The target in experiment [3] is GABAA receptors containing the a2 subunit (Homo sapiens, UniProt P18507+P47869). The following applies: cited from earlier work.
GABAA receptors containing the a2 subunit, sequence (P47869 29-451): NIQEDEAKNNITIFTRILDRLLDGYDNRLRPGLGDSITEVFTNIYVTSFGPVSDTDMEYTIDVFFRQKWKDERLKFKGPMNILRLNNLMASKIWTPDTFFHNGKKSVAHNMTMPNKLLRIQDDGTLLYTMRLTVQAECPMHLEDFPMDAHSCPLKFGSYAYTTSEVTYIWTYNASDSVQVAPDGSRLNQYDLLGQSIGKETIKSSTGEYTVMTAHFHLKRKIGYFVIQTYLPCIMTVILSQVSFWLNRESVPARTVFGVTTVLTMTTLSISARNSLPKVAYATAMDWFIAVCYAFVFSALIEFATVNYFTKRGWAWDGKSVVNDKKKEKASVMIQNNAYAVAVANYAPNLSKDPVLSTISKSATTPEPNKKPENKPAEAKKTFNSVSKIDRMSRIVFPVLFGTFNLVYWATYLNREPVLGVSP
GABAA receptors containing the a2 subunit, sequence (P47870 25-512 partner limits assumed): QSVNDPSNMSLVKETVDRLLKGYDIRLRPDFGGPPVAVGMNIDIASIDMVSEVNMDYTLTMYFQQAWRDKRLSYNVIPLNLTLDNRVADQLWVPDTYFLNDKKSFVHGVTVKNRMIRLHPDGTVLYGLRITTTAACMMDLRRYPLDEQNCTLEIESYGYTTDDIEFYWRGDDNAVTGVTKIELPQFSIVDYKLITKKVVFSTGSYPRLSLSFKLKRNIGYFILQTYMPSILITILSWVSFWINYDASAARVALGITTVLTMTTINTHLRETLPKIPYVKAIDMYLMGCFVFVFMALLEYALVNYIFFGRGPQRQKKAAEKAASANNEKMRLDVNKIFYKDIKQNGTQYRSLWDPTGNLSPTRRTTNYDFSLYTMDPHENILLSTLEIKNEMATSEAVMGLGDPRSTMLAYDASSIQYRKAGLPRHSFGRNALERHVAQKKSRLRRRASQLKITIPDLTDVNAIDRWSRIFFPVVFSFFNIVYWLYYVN
GABAA receptors containing the a2 subunit, sequence (P18507 40-475): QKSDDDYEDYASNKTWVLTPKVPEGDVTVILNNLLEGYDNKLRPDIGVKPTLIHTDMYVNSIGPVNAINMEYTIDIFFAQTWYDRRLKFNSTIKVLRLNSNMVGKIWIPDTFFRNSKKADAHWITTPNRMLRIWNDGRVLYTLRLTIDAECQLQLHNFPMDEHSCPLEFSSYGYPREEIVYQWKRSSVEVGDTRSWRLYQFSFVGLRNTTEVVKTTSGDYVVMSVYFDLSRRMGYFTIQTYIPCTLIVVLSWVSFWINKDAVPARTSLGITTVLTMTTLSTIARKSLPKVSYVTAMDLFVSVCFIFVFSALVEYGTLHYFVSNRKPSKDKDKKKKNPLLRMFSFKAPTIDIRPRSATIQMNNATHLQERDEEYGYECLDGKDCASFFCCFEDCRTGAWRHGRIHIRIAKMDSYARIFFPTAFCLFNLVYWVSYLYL

GABAA receptors containing the a5 subunit, sequence (P31644 32-462): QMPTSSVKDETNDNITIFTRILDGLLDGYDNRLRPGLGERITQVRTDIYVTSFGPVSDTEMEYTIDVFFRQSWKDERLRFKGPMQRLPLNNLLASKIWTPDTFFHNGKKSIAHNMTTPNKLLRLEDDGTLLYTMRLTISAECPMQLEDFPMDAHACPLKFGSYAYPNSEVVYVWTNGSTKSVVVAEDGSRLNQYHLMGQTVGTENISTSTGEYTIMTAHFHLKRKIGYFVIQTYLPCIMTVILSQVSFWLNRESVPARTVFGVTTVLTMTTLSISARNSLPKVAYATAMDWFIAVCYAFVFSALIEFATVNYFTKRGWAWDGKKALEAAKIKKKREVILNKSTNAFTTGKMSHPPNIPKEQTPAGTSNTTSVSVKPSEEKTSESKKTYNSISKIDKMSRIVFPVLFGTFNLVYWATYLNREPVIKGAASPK
GABAA receptors containing the a5 subunit, sequence (P47870 25-512 partner limits assumed): as the sequence (P47870 25-512 partner limits assumed) above
GABAA receptors containing the a5 subunit, sequence (P18507 40-475): as the sequence (P18507 40-475) above

On to `COc1ncc(-c2cccc(-n3cnc4cc(C(C)(C)O)cnc43)c2)c(OC)n1` [Compound 1, 2-(3-(3-(2,4-dimethoxypyrimidin-5-yl)phenyl)-3H-imidazo[4,5-b]pyridin-6-yl)propan-2-ol], for which the “analgesic effects (overall)” value in experiment [1] is “significant analgesic effects in a dose dependent manner”. The “positive allosteric modulation of GABAA receptors containing the a5 subunit” value in experiment [2] is recorded as “to a minor extent”. Further, the “positive allosteric modulation of GABAA receptors containing the a2 subunit” value in experiment [3] is “to a minor extent”.

The record behind these values is patent US20240197733A1, “A GABA RECEPTOR MODULATOR FOR USE IN THE TREATMENT OF PAIN” (SANIONA A/S, priority 2021, published 2024).
